The text below walks through data of US4698327A, “Novel glycopeptide derivatives” (priority 1986, dated 1987).

Assay [1] has as its system Staphylococcus aureus V41. Put plainly: MIC, standard agar-dilution assay. It counts as cell-based.
The subject of assay [2] is Staphylococcus aureus X400. The experiment in a line: MIC, standard agar-dilution assay. It counts as cell-based.
In assay [3] the test system is Staphylococcus aureus S13E. It counts as cell-based. Particulars: agar dilution. On the technique in general: In agar dilution, organisms are placed on agar that contains the substance at set levels.
Assay [4] deals with Staphylococcus epidermidis EPI1. It counts as cell-based. The conditions noted are these: agar dilution.
Assay [5] deals with Staphylococcus epidermidis 222. The experiment in a line: MIC, standard agar-dilution assay. It counts as cell-based.
Assay [6] relates to Streptococcus pyogenes C203. The experiment in a line: MIC, standard agar-dilution assay. In kind it is cell-based.
Assay [7] deals with Streptococcus pneumoniae Park 1. It counts as cell-based. Particulars: agar dilution.
The subject of assay [8] is Streptococcus faecium ATCC 9790. The experiment in a line: MIC, standard agar-dilution assay. In kind it is cell-based.
The subject of assay [9] is Streptococcus sp. group D 2041. The experiment in a line: MIC, standard agar-dilution assay. In kind it is cell-based.
Assay [10] concerns Haemophilus influenzae C.L. The experiment in a line: MIC, standard agar-dilution assay. It counts as cell-based.
Assay [11] has as its system Haemophilus influenzae 76. Put plainly: MIC, standard agar-dilution assay. It counts as cell-based.
Another assay relates to Escherichia coli N10. Put plainly: MIC, standard agar-dilution assay. In kind it is cell-based.
The next assay has as its system Escherichia coli EC14. Put plainly: MIC, standard agar-dilution assay. It counts as cell-based.
A further assay deals with Escherichia coli TEM. Put plainly: MIC, standard agar-dilution assay. In kind it is cell-based.
The test system of assay [12] is Klebsiella pneumoniae X26. The experiment in a line: MIC, standard agar-dilution assay. It counts as cell-based.
The subject of assay [13] is Klebsiella pneumoniae X68. Put plainly: MIC, standard agar-dilution assay. It counts as cell-based.
The test system of assay [14] is Klebsiella pneumoniae KAE. The experiment in a line: MIC, standard agar-dilution assay. In kind it is cell-based.
In assay [15] the test system is Staphylococcus aureus NRRL B313. Particulars: agar dilution.

≈ marks a conversion by molar mass, not a printed value. Where only a bound is given, the exact number is not on record here.

For the compound `CCCCCCCCCCNC1(C)CC(OC2C(Oc3c4cc5cc3Oc3ccc(cc3Cl)C(O)C(NC(=O)C(CC(C)C)N(C)CCCCCCCCCC)C(=O)NC(CC(N)=O)C(=O)NC5C(=O)NC3C(=O)NC(C(=O)NC(C(=O)O)c5cc(O)cc(O)c5-c5cc3ccc5O)C(O)c3ccc(c(Cl)c3)O4)OC(CO)C(O)C2O)OC(C)C1O` (stereo not drawn) [Compound 4, N^van, N^leu --di(n-decyl)vancomycin], the MIC in assay [1] came out at 4 µg/mL (≈ 2.31 µM); in [2], 4 µg/mL (≈ 2.31 µM); in assay [3], 4 µg/mL (≈ 2.31 µM); in assay [4] it was 16 µg/mL (≈ 9.25 µM); in assay [5], 4 µg/mL (≈ 2.31 µM); in [6], 2 µg/mL (≈ 1.16 µM). In addition, the MIC in assay [7] was 4 µg/mL (≈ 2.31 µM); in assay [8], 4 µg/mL (≈ 2.31 µM); in assay [9], 4 µg/mL (≈ 2.31 µM); in assay [10], > 128 µg/mL; in [11], > 128 µg/mL; in the assay with Escherichia coli N10, > 128 µg/mL. Also, the MIC in the assay on Escherichia coli EC14 is > 128 µg/mL; against Escherichia coli TEM, > 128 µg/mL; in [12], > 128 µg/mL; in assay [13] it was > 128 µg/mL; in assay [14], > 128 µg/mL; in assay [15], 2 µg/mL (≈ 1.16 µM).
On to `CCCCCCCCCNC1(C)CC(OC2C(Oc3c4cc5cc3Oc3ccc(cc3Cl)C(O)C(NC(=O)C(CC(C)C)N(C)CCCCCCCCC)C(=O)NC(CC(N)=O)C(=O)NC5C(=O)NC3C(=O)NC(C(=O)NC(C(=O)O)c5cc(O)cc(O)c5-c5cc3ccc5O)C(O)c3ccc(c(Cl)c3)O4)OC(CO)C(O)C2O)OC(C)C1O` (stereo not drawn) [Compound 6, N^van, N^leu --di(n-nonyl)vancomycin], for which the MIC stood at 1 µg/mL (≈ 0.588 µM) in assay [1]; 1 µg/mL (≈ 0.588 µM) in assay [2]; 2 µg/mL (≈ 1.18 µM) in assay [3]; 4 µg/mL (≈ 2.35 µM) in [4]; 2 µg/mL (≈ 1.18 µM) in assay [5]; 1 µg/mL (≈ 0.588 µM) in assay [6]. Further, the MIC in assay [7] is 2 µg/mL (≈ 1.18 µM); in assay [8] it was 1 µg/mL (≈ 0.588 µM); in assay [9] it was 2 µg/mL (≈ 1.18 µM); in assay [10], > 128 µg/mL; in [11], > 128 µg/mL; in the assay on Escherichia coli N10 it was > 128 µg/mL. For the same compound, the MIC against Escherichia coli EC14 is > 128 µg/mL; in the assay with Escherichia coli TEM, > 128 µg/mL; in assay [12], > 128 µg/mL; in [13], > 128 µg/mL; in assay [14], > 128 µg/mL; in assay [15], 1 µg/mL (≈ 0.588 µM).
Take `CCCCCCCCNC1(C)CC(OC2C(Oc3c4cc5cc3Oc3ccc(cc3Cl)C(O)C(NC(=O)C(CC(C)C)N(C)CCCCCCCC)C(=O)NC(CC(N)=O)C(=O)NC5C(=O)NC3C(=O)NC(C(=O)NC(C(=O)O)c5cc(O)cc(O)c5-c5cc3ccc5O)C(O)c3ccc(c(Cl)c3)O4)OC(CO)C(O)C2O)OC(C)C1O` (stereo not drawn) [Compound 9, N^van, N^leu --di(n-octyl)vancomycin]: the MIC in assay [1] is 1 µg/mL (≈ 0.597 µM); in [2] it was 1 µg/mL (≈ 0.597 µM); in assay [3] it was 1 µg/mL (≈ 0.597 µM); in assay [4], 4 µg/mL (≈ 2.39 µM); in [5] it was 2 µg/mL (≈ 1.19 µM); in [6], 0.5 µg/mL (≈ 0.299 µM). In addition, the MIC in assay [7] was 1 µg/mL (≈ 0.597 µM); in [8] it was 1 µg/mL (≈ 0.597 µM); in assay [9] it was 2 µg/mL (≈ 1.19 µM); in assay [10], > 128 µg/mL; in assay [11], > 128 µg/mL; against Escherichia coli N10, > 128 µg/mL. The MIC in the assay on Escherichia coli EC14 was > 128 µg/mL; in the assay with Escherichia coli TEM, > 128 µg/mL; in assay [12] it was > 128 µg/mL; in assay [13] it was > 128 µg/mL; in assay [14] it was > 128 µg/mL; in [15], 1 µg/mL (≈ 0.597 µM).
Regarding `CCCCCCCNC1(C)CC(OC2C(Oc3c4cc5cc3Oc3ccc(cc3Cl)C(O)C3NC(=O)C(NC(=O)C5NC(=O)C(CC(N)=O)NC(=O)C(NC(=O)C(CC(C)C)NC)C(O)c5ccc(c(Cl)c5)O4)c4ccc(O)c(c4)-c4c(O)cc(O)cc4C(C(=O)O)NC3=O)OC(CO)C(O)C2O)OC(C)C1O` (stereo not drawn) [Compound 10, N^van --(n-heptyl)vancomycin], the MIC worked out at 0.5 µg/mL (≈ 0.323 µM) in assay [1]; 0.5 µg/mL (≈ 0.323 µM) in assay [2]; 0.5 µg/mL (≈ 0.323 µM) in assay [3]; 2 µg/mL (≈ 1.29 µM) in [4]; 1 µg/mL (≈ 0.646 µM) in [5]; 0.5 µg/mL (≈ 0.323 µM) in [6]. Also, the MIC in [7] is 0.125 µg/mL (≈ 0.0808 µM); in [8], 0.5 µg/mL (≈ 0.323 µM); in [9], 1 µg/mL (≈ 0.646 µM); in assay [10] it was 128 µg/mL (≈ 82.7 µM); in assay [11], 128 µg/mL (≈ 82.7 µM); against Escherichia coli N10 it was > 128 µg/mL. Moreover, the MIC was > 128 µg/mL against Escherichia coli EC14; > 128 µg/mL in the assay with Escherichia coli TEM; > 128 µg/mL in assay [12]; > 128 µg/mL in [13]; > 128 µg/mL in assay [14]; 0.25 µg/mL (≈ 0.162 µM) in assay [15].
For the compound `CCCCCCCNC1(C)CC(OC2C(Oc3c4cc5cc3Oc3ccc(cc3Cl)C(O)C(NC(=O)C(CC(C)C)N(C)CCCCCCC)C(=O)NC(CC(N)=O)C(=O)NC5C(=O)NC3C(=O)NC(C(=O)NC(C(=O)O)c5cc(O)cc(O)c5-c5cc3ccc5O)C(O)c3ccc(c(Cl)c3)O4)OC(CO)C(O)C2O)OC(C)C1O` (stereo not drawn) [Compound 12, N^van, N^leu --di(n-heptyl)vancomycin], the MIC stood at 1 µg/mL (≈ 0.608 µM) in [1]; 1 µg/mL (≈ 0.608 µM) in assay [2]; 1 µg/mL (≈ 0.608 µM) in [3]; 2 µg/mL (≈ 1.22 µM) in [4]; 1 µg/mL (≈ 0.608 µM) in assay [5]; 0.5 µg/mL (≈ 0.304 µM) in assay [6]. Also, the MIC in [7] is 0.5 µg/mL (≈ 0.304 µM); in assay [8] it was 1 µg/mL (≈ 0.608 µM); in [9], 1 µg/mL (≈ 0.608 µM); in [10] it was > 128 µg/mL; in assay [11], 128 µg/mL (≈ 77.8 µM); in the assay with Escherichia coli N10 it was > 128 µg/mL. The MIC in the assay with Escherichia coli EC14 was > 128 µg/mL; with Escherichia coli TEM, > 128 µg/mL; in [12], > 128 µg/mL; in [13] it was > 128 µg/mL; in assay [14] it was > 128 µg/mL; in assay [15], 0.5 µg/mL (≈ 0.304 µM).
In the case of `CCCCCCNC1(C)CC(OC2C(Oc3c4cc5cc3Oc3ccc(cc3Cl)C(O)C3NC(=O)C(NC(=O)C5NC(=O)C(CC(N)=O)NC(=O)C(NC(=O)C(CC(C)C)NC)C(O)c5ccc(c(Cl)c5)O4)c4ccc(O)c(c4)-c4c(O)cc(O)cc4C(C(=O)O)NC3=O)OC(CO)C(O)C2O)OC(C)C1O` (stereo not drawn) [Compound 13, N^van --(n-hexyl)vancomycin], the MIC was determined as 1 µg/mL (≈ 0.652 µM) in assay [1]; 1 µg/mL (≈ 0.652 µM) in assay [2]; 0.5 µg/mL (≈ 0.326 µM) in assay [3]; 2 µg/mL (≈ 1.3 µM) in assay [4]; 1 µg/mL (≈ 0.652 µM) in assay [5]; 0.5 µg/mL (≈ 0.326 µM) in assay [6]. Also, the MIC is 0.125 µg/mL (≈ 0.0815 µM) in assay [7]; 1 µg/mL (≈ 0.652 µM) in [8]; 1 µg/mL (≈ 0.652 µM) in [9]; 128 µg/mL (≈ 83.5 µM) in assay [10]; 128 µg/mL (≈ 83.5 µM) in [11]; > 128 µg/mL in the assay on Escherichia coli N10. In addition, the MIC against Escherichia coli EC14 is > 128 µg/mL; with Escherichia coli TEM, > 128 µg/mL; in assay [12] it was > 128 µg/mL; in [13], > 128 µg/mL; in [14], > 128 µg/mL; in [15] it was 0.5 µg/mL (≈ 0.326 µM).
With `CCCCCNC1(C)CC(OC2C(Oc3c4cc5cc3Oc3ccc(cc3Cl)C(O)C3NC(=O)C(NC(=O)C5NC(=O)C(CC(N)=O)NC(=O)C(NC(=O)C(CC(C)C)NC)C(O)c5ccc(c(Cl)c5)O4)c4ccc(O)c(c4)-c4c(O)cc(O)cc4C(C(=O)O)NC3=O)OC(CO)C(O)C2O)OC(C)C1O` (stereo not drawn) [Compound 15, N^van --(n-pentyl)vancomycin], the MIC in assay [1] was 1 µg/mL (≈ 0.658 µM); in assay [2] it was 1 µg/mL (≈ 0.658 µM); in assay [3], 1 µg/mL (≈ 0.658 µM); in assay [4], 2 µg/mL (≈ 1.32 µM); in assay [5] it was 1 µg/mL (≈ 0.658 µM); in [6] it was 0.5 µg/mL (≈ 0.329 µM). Also, the MIC in [7] was 0.125 µg/mL (≈ 0.0823 µM); in [8], 1 µg/mL (≈ 0.658 µM); in [9], 2 µg/mL (≈ 1.32 µM); in assay [10], 128 µg/mL (≈ 84.2 µM); in assay [11] it was 128 µg/mL (≈ 84.2 µM); against Escherichia coli N10, > 128 µg/mL. Besides, the MIC in the assay with Escherichia coli EC14 was > 128 µg/mL; in the assay on Escherichia coli TEM, > 128 µg/mL; in [12] it was > 128 µg/mL; in assay [13], > 128 µg/mL; in [14], > 128 µg/mL; in [15], 0.5 µg/mL (≈ 0.329 µM).
